Nine compounds from US7977120B2, “Fluorescent sensors for cellular amines” (The Curators of the University of Missouri, priority 2005, dated 2011) can be followed below.

A short description of the assay: Titration of Sensor Ia with various analytes (UV-vis and fluorescence). Type of assay: binding. The note with it: for Isat/I0 (λex = 446 nm): fluorescence intensity at saturation from theoretical fit to binding isotherm; for Isat/I0 (λex = 484 nm) / Isat/I0 (λex = 495 nm): fluorescence intensity at saturation from theoretical fit; for Kn (association constant): fluorescence spectroscopy, λem = 505 nm, error ± 20%, triplicate titration; for Isat/I0 (λex = 484 nm) / Kn (association constant): λex = 484 nm; for binding affinity for sensor Ia (in words): compared with catecholamines. The procedure: One exemplary coumarin-based sensor, 2-(((5-(7-(diethylamino)-3-formyl-2-oxo-2H-chromen-4-yl)pentyl)(methyl)amino)methyl)phenylboronic acid, sensor Ia, has been examined spectrophotometrically by titration with dopamine under neutral aqueous conditions in which a reducing agent is included to suppress oxidation of the air-sensitive catechol group.
The titration conditions are 10 μM sensor Ia with 100 mM Na2S2O3, 50 mM HEPES, 20 mM NaCl, pH=7.0, and at 37° C. […] See also, Org. Lett. 2004, 6(21), 3727-3730, which is incorporated herein by reference.
Binding constants (Ka) are determined by fluorescence titrations.

`NC(CCC(=O)O)C(=O)O` (centres unmarked): the “Isat/I0 (λex = 446 nm)” value is 0.87, the “Isat/I0 (λex = 484 nm)” value is 7.0, the “Isat/I0 (λex = 495 nm)” value amounted to 25 and the “Kn (association constant)” value was determined as 6.8 M⁻¹.
The like results for `NCCCCC(N)C(=O)O` (centres unmarked) were, in that order, 0.75, 8.0, 25 and 4.0 M⁻¹.
Take `NC1C(O)OC(CO)C(O)C1O` (centres unmarked): the “Isat/I0 (λex = 446 nm)” value is listed as 0.55, the “Isat/I0 (λex = 484 nm)” value was determined as 5.9, the “Isat/I0 (λex = 495 nm)” value is recorded as 27 and the “Kn (association constant)” value amounted to 5.0 M⁻¹.
In the case of `NCCc1ccc(O)cc1` [Tyramine], the “binding affinity for sensor Ia (in words)” value (“binding affinity” for short) is given as “significantly reduced affinity”, the “Isat/I0 (λex = 446 nm)” value is given as 0.41, the “Isat/I0 (λex = 484 nm)” value was 8.0 and the “Isat/I0 (λex = 495 nm)” value came out at 52. The “Kn (association constant)” value was 250 M⁻¹.
Turning to `NCCc1ccc(O)c(O)c1` [dopamine], the “Isat/I0 (λex = 446 nm)” value was 0.50, the “Isat/I0 (λex = 484 nm)” value is 0.60 and the “Kn (association constant)” value amounted to 3400 M⁻¹.
As for `CNCC(O)c1ccc(O)c(O)c1` (centres unmarked) [epinephrine], the “Isat/I0 (λex = 446 nm)” value came to 0.73, the “Isat/I0 (λex = 484 nm)” value is given as 0.76, the “Isat/I0 (λex = 495 nm)” value is given as 0.77 and the “Kn (association constant)” value was 5000 M⁻¹.
As for `N[C@H]1C(O)O[C@H](CO)[C@@H](O)[C@@H]1O` (some centres unmarked) [glucosamine], the “binding affinity” value is reported as “affinity similar to the simple amines”.
For `N[C@@H](CCC(=O)O)C(=O)O` [glutamate], the “binding affinity” value was “low affinity”.
Take `NCC(O)c1ccc(O)c(O)c1` (centres unmarked) [norepinephrine]: the “Isat/I0 (λex = 446 nm)” value came out at 0.39, the “Isat/I0 (λex = 484 nm)” value is 0.46 and the “Kn (association constant)” value was found to be 6500 M⁻¹.
